The subject of data set [1] is arachidonic acid-induced ear swelling. The data set can be described thus: Arachidonic acid-induced ear swelling in mice (intraperitoneal administration). The format is in vivo. The settings on record: measured at 90 minutes. How it is done: The protocols of this experiment were similar to Example 3, except the following differences. Test substance diethyl (2-cyanoethyl) phosphonate was dissolved in PBS to generate 1, 3 and 10 mg/mL testing solutions. Vehicle (PBS) at 10 mL/kg and diethyl (2-cyanoethyl) phosphonate at 10 mL/kg (10, 30, and 100 mg/kg) were administered intraperitoneally at 1 hour, and again 15 minutes before arachidonic acid (0.5 mg/ear) challenge. The positive control dexamethasone was administered orally 3 hours before arachidonic acid.
An ANOVA was done, and if p<0.05, a Dunnett's t test was employed to calculate significant difference between vehicle control and treated groups. Significance is set at P<0.05 level.
An ANOVA was done, and if p<0.05, a Dunnett's t test was employed to calculate significant difference between vehicle control and test compound treated groups. A pairwise Student's t test was used to calculate differences between the dexamethasone group and the control group. Significance is set at P<0.05 level.

Data set [2] has the same test system. The data set can be described thus: Topical arachidonic acid-induced ear swelling model in mice (topical administration). It counts as in vivo, mice (male ICR). Conditions: 90 minutes after arachidonic acid. How it is done:
The test compound, indomethacin (positive control), and vehicle (acetone:ethanol/1:1) were evaluated for anti-inflammatory activity in a topical arachidonic acid-induced ear swelling model in mice.
Male ICR mice weighing 22±2 g were used and randomly divided; the test compound and vehicle control had 10 mice, and indomethacin had 5 mice. Arachidonic Acid (0.5 mg in 20 μl of acetone:ethanol/1:1) was applied topically to the anterior and posterior surfaces of the right ear of each mice. Test substances (in vehicle) and vehicle, as listed in Table 3 were similarly applied 30 min before and 15 min after arachidonic acid application. The thickness of the right ear and the left ear was measured and the difference calculated as an indication of the inflammation in the right ear. Ear swelling was measured by a Dyer model micrometer gauge at 60 and 90 minutes after arachidonic acid application as an index of inflammation. Percent inhibition was calculated according to the formula: Ic−It/Ic×100, where Ic and It refers to increase of ear thickness (mm) in control and treated mice, respectively. An ANOVA was done, and if p<0.05, a Dunnett's t test was employed to calculate significant difference between vehicle control and test compound treated groups. A pairwise Student's t test was used to calculate differences between the indomethacin group and the control group. Significance is set at P<0.05 level.

Data set [3] relates to tail flick reaction to heat (49° C. water bath). The data set can be described thus: Tail flick test in mice (oral administration). The format is in vivo. How it is done:
Tail flick test is a test of the pain response in animals. Tail flick test is used in basic pain research and to measure the effectiveness of analgesics, by observing the tail flick reaction to heat in an animal. This test assesses the nociceptive response to a local pain stimulus, and the ability of a drug to inhibit this response.
Vehicle control (water) and test compound diethyl (2-cyanoethyl) phosphonate in water were administered by oral gavage to mice with a volume of 10 mL/kg, twice, at 60 and 15 minutes before the first tail flick measurement. The test compound was administered at a dosage of 10, 30, or 100 mg/kg in water. The positive control compound morphine was administered by subcutaneous injection at 8 mg/kg with a volume of 8 mL/kg, at 15 minutes before the first tail flick measurement. Each group had 10 mice.
The response of mice to heat stimulus was evaluated by measuring the time of tail-flick or tail-flick latency from 49° C. water bath. Briefly, the animal was placed in a restrainer with its tail hanging down. Approximately 2 inches of the tail was immersed in a beaker of water at 38±1° C. for about 30 seconds, and this was done twice to acclimate the animal to the procedure.
Subsequently, approximately 2 inches of the tail was immersed in a beaker of water at 49±1° C., at which point a timer was started.
Tail flick measurements were made 60, 80, 100, and 120 minutes post administration of the first dosage of test compound. An ANOVA was done, and if p<0.05, a Dunnett's t test was employed to calculate significant difference between vehicle control and test compound treated groups. A pairwise Student's t test was used to calculate differences between the morphine group and the control group. […] Analysis with p-values <0.05 is considered significant.
(In general: In hot-plate and tail-flick tests a longer latency is read as antinociception.)

Data set [4] deals with formalin-induced paw licking. The data set can be described thus: Formalin test in mice (oral administration). The format is in vivo, mice (male CD-1). The settings on record: for Licks per min (Between 0-10 min): early phase, vehicle 3.3; for Licks per min (Between 10-40 min): late phase, vehicle 1.4. On the procedure: Formalin test is a model of continuous pain resulting from formalin-induced tissue injury. Nociceptive and inflammatory pain was induced by injection of a dilute formalin solution into the paw, resulting in nocifensive behavior including paw flinching. The formalin model encompasses inflammatory, neurogenic, and central mechanism of pain. The early phase of pain (from 0 to about 10 minutes) is due to nociceptive mechanism and the late phase of pain (from 10-40 minutes) is due to a combination of inflammatory pain and nociceptive mechanism. Pain behavior is assessed using manual paw licking measurements. The endpoints of the study are the number of paw licking events. (Hunskaar et al., Pain, 30:103-114, 1987; Li et al., Molecular Pain, 6:11, 2010)
Male CD-1 mice, about 34 g, were used in the study. Mice had free access to food and water, were maintained on a 12 hour:12 hour light/dark schedule for the entire duration of the study, and housed in soft bedding five per cage.
Immediately prior to testing (at time 0), mice were restrained in a cloth and injected with 20 μL of a 5% formalin solution, subcutaneously into the dorsal surface of the left hind paw. Vehicle control (n=10, water) and test compound diethyl (2-cyanoethyl) phosphonate (n=9, in water) were administered by oral gavage with a volume of 10 mL/kg to mice. The amounts of test compound were 10, 30, or 100 mg/kg per dose.
Positive control morphine was administered by subcutaneous injection at 4 mg/kg with a volume of 4 mL/kg to mice (n=10). […] The purpose of morphine is not to serve as a comparison with the test compound.
Morphine was subcutaneously administered once 15 minutes before formalin injection. The test compounds and vehicle control were orally administered twice (BID), at 60 and 15 minutes before formalin injection at time zero.
Following formalin injection, animals were placed in individual cages, and manually observed for 60 minutes. The licking events were recorded in five minute intervals continuously for a total of 60 minutes.
The number of licking events per minute was calculated between 0-10 minutes and 10-40 minutes for vehicle, positive control, and test compound. An ANOVA was done, and if p<0.05, a Dunnett's t test was employed to calculate significant difference between vehicle control and test compound treated groups. A pairwise Student's t test was used to calculate differences between the morphine group and the control group. Significance is set at P<0.05 level.

Data set [5] deals with formalin-induced paw licking. Conditions: for Licks per min (Between 0-10 min) / Licks per min (Between 10-40 min): 375 mM topical BID; for Licks per min (Between 0-10 min): early phase, vehicle 4.4; for Licks per min (Between 10-40 min): late phase, vehicle 1.7. How it is done: The test compound diethyl (2-cyanoethyl) phosphonate (375 mM in vehicle, n=16) and vehicle control (acetone:ethanol 1:1, n=16) were administered topically by submerging the mouse left hind paw in the respective solution for about 30 seconds. The paw was then withdrawn and wiped with tissue to avoid excess dermal drying.
Positive control morphine was administered by subcutaneous injection at 4 mg/kg with a volume of 4 mL/kg to mice (n=16).
Morphine was subcutaneously administered once 15 minutes before formalin injection. The test compounds and vehicle control were topically administered twice (BID), at 90 and 15 minutes before formalin injection.
Following formalin injection, animals were placed in individual cages, and manually observed for 60 minutes. The licking events were recorded in five minute intervals continuously for a total of 40 minutes.
The number of licking events per minute was calculated between 0-10 minutes and 10-40 minutes for vehicle, positive control, and test compound. A two-sample t-test was done to compare the vehicle group with the test compound group. Significance is set at P<0.05 level. The same statistics were done comparing the vehicle group with the positive control group.

Data set [6] concerns IL-6, TNFα, IFNγ, MIP-2 and RANTES. The data set can be described thus: Pro-inflammatory cytokine release in rat challenged in vivo with lipopolysaccharide. The settings on record: given orally to rat, LPS challenge in vivo.
The mark [7] stands for this setting: 100 mg/kg oral BID, listed as test compound.

Like-named read-outs stand apart in the source and are kept apart here.

`C[C@@H]1C[C@H]2[C@@H]3CCC4=CC(=O)C=C[C@]4(C)[C@@]3(F)[C@@H](O)C[C@]2(C)[C@@]1(O)C(=O)CO` [Dexamethasone, dexamethasone, reference compound]: the “% Inhibition of ear swelling” value in data set [1] (0.3 mg/kg orally 3 hours before arachidonic acid) worked out at 29%.

`CCOP(=O)(CCC#N)OCC` [Diethyl (2-cyanoethyl) phosphonate, Diethyl (2-cyanoethyl)phosphonate]: the “% Inhibition of ear swelling” value in data set [2] (375 mM in acetone:ethanol (1:1), 20 μL (1.4 mg/ear) applied twice topically) is reported as 55%; in data set [2] (375 mM in acetone:ethanol (1:1), 20 μL (1.4 mg/ear) applied twice topically, listed as active compound) it was “anti-inflammatory”; in data set [2] (375 mM in acetone:ethanol (1:1), 20 μL (1.4 mg/ear) applied twice topically, listed as tested compound), 55%; in data set [1] (10 mg/kg intraperitoneally, twice), −8%; in data set [1] (30 mg/kg intraperitoneally, twice), 0%; in data set [1] (100 mg/kg intraperitoneally, twice), 34%. Also, the “% Inhibition of ear swelling” value in data set [1] (100 mg/kg intraperitoneally, twice, listed as tested compound) is reported as 37%. Further, the “Tail flick latency vs vehicle-treated mice” value in data set [3] (30 mg/kg oral, twice, 60, 80, 100, 120 minutes) was “statistically significant tail flick latency at 60 and 80 minutes”; in data set [3] (100 mg/kg oral, twice, 60, 80, 100, 120 minutes), “statistically significant tail flick latency at 60 and 100 minutes”. Moreover, the “Licking events, difference from control” value in data set [4] (10 mg/kg oral BID) and in data set [4] (30 mg/kg oral BID) was “did not show a statically significant difference from control” in each case. The “Efficacy after 40 minutes (licking events)” value in data set [4] (100 mg/kg oral BID) is “did not last after 40 minutes”. The “Licks per min (Between 0-10 min)” value in data set [4] (100 mg/kg oral BID) was 3.1 licks per min; in data set [4] (setting [7]), “no statistically significant difference”; in data set [5] it was 4.0 licks per min; in data set [5] (listed as test compound), “no statistically significant difference”. For the same compound, the “Licks per min (Between 10-40 min)” value in data set [4] (100 mg/kg oral BID) is on record as 0.59 licks per min; in data set [4] (setting [7]) it was “statistically significant (p<0.05) reduction”; in data set [5], 1.1 licks per min; in data set [5] (listed as test compound) it was “statistically significant (p<0.05) reduction”. For the same compound, in data set [5] (375 mM topical, no formalin), the “Paw licking events after topical application alone without injection of formalin” value is “negligible number of paw licking events”. Moreover, the “Pro-inflammatory cytokine release (IL-6, TNFα, IFNγ, MIP-2 and RANTES)” value in data set [6] is “effective in inhibiting pro-inflammatory cytokine release”.

For the compound `CN1CC[C@]23c4c5ccc(O)c4O[C@H]2[C@@H](O)C=C[C@H]3[C@H]1C5` [Morphine, morphine, reference compound], in data set [3] (mouse, in vivo), the “Tail flick latency vs vehicle-treated mice” value was “statistically significant tail flick latency at all measured time points”. For the same compound, the “Efficacy after 40 minutes (licking events)” value in data set [4] (mouse, in vivo) is on record as “did not last after 40 minutes”.

Regarding `COc1ccc2c(c1)c(CC(=O)O)c(C)n2C(=O)c1ccc(Cl)cc1` [Indomethacin, indomethacin, reference compound], the “% Inhibition of ear swelling” value in data set [2] (14 mM, 20 μL (0.1 mg/ear) applied twice topically) was 58%.

For the origin of these results see patent US20160158252A1, “PHARMACEUTICAL COMPOSITION AND USE OF DIETHYL (2-CYANOETHYL)PHOSPHONATE” (Olatec Therapeutics LLC, priority 2013, published 2016).
